This is an account of results in article PMC9139167, “Rational Discovery of Antiviral Whey Protein-Derived Small Peptides Targeting the SARS-CoV-2 Main Protease” (Biomedicines, 2022).

Test [1] concerns the target SARS-CoV-2 3CL Protease (Severe acute respiratory syndrome coronavirus 2, UniProt P0DTD1). Kind of test: biochemical.
The subject of test [2] is 3C^pro. The conditions noted are these: ref [56]; cited from earlier work.
Test [3] concerns Gram-positive bacteria. The conditions noted are these: ref [33],[34]; cited from earlier work.
Test [4] has as its system DPP-4. The conditions noted are these: ref [33],[34]; cited from earlier work. An excerpt:
Recently, we investigated ACE inhibitory activity by peptide sequences, derived from the enzymatic hydrolysis of whey proteins and predicted by molecular docking and related prioritization studies.

Setting [5] is: read-out: Relative Inhibition (RI %).

Where a SMILES comes first, the peptide text is derived from it. The star is where a group is joined. Cbz = O=C(OCc1ccccc1)*

The term IC50 denotes the concentration needed to halve the response being measured. A low value points to higher potency. Broadly, the inhibition is the relative decrease from the control value, in per cent. In turn, `CC[C@H](C)[C@H](N)C(=O)N[C@@H](C)C(=O)N[C@@H](CCC(=O)O)C(=O)N[C@@H](CCCCN)C(=O)O` [IAEK] (H-IAEK-OH) yielded an IC50 in test [1] of 154 µM. Further, in test [1] (setting [5]), the inhibition at 0.036 µM amounted to 34.6 ± 1.13%, the inhibition at 0.36 µM was 40.5 ± 1.26%, the inhibition at 3.6 µM was determined as 46.5 ± 3.48% and the inhibition at 36.6 µM turned out to be 46.6 ± 3.79%. In addition, in test [1] (setting [5]), the inhibition at 109.8 µM worked out at 49.7 ± 3.16%, the inhibition at 183 µM came to 87.7 ± 1.61% and the inhibition at 366 µM stood at 84 ± 3.39%.
As for “Cbz-Leu-Phe-Gln-aldehyde [tripeptide aldehydes]”, in test [2], the “inhibitory activity against 3C^pro” value is “poor inhibitory activity”.
As to IPAVFK, the antimicrobial activity entry in test [3] is listed as “antimicrobial activity against Gram-positive bacteria”. In addition, the DPP-4 inhibitory activity entry in test [4] is given as “exhibited DPP-4 inhibitory activity”.
